Measurements published in patent publication US20110098177A1, “METHODS AND COMPOSITIONS OF PLANT MICRONUTRIENTS” (NOVUS INTERNATIONAL INC., priority 2006, published 2011).
Like-named read-outs stand apart in the source and are kept apart here.

Tests used:
Type in all cases: in vivo
Aristotle bell pepper = test system: Aristotle bell pepper
Procedure: (§1) The following experiments were performed in a green house during the fall of 2007 at GCREC, Balm, University of Florida. Fifteen products, at 3 different application rates were examined. The plot size was 2-gallon pots. Crop set-up, procedures and variables were as follows.
(§2) Transplants of ‘Florida-47’ tomato and ‘Aristotle’ bell pepper plants in the 4-true leaf stage (about 6 inches tall) were planted in 2-gal pots on Aug. 27, 2007. Pots were filled with a commercially available planting medium. This medium was selected based on the mineral composition of the products to be applied without providing significant nutritional inputs to the crops. Irrigation was provided with drip lines delivering between 0.50 and 0.33 gal/day/pot for tomato and bell pepper, respectively, and the crops were irrigated three times per day. No foliar pesticides were necessary.
(§3) There were four control treatments corresponding to each target micronutrient in which non-Fe, non-Mn, non-Zn or non-Cu pots received all other essential nutrients under non-limiting conditions.
(§4) Treatments were applied at three rates (high, medium and low) obtained from the estimated concentration of Zn, Fe, Cu, and Mn foliarly-applied in tomato and bell pepper in field situations (Table 1). Products were weighed and dissolved in 200 ml of deionized water with a non-ionic surfactant and applied to the newly-matured open leaves of each crop at 3 and 7 weeks after transplant (WAT). Treated pots were isolated during application to avoid cross-contamination of other treatments.
(§5) Medium nutrient concentration was determined 1 week before treatment. The mineral composition of the medium was 26.8 ppm NH4—N, 49 ppm NO3—N, 15.8 ppm P, 91.2 ppm K, 82.3 ppm Ca, 58.2 ppm Mg, 23.9 ppm Na, 125.6 ppm S, 1.33 ppm Fe, 0.39 ppm Mn, 0.35 ppm Zn, 0.05 pp, Cu, 0.04 ppm B, 0 ppm Mo, 0.73 ppm Al, and 12.1 ppm Si. The pH of the medium was 5.36 and the electric conductivity was 1.38 mS/cm. The foliar tissue analysis was performed at 6 WAT and the concentration of N, P, K, Mg, Ca, S, B, Zn, Mn, Fe, and Cu was determined by a commercial laboratory. Plant toxicity was determined at 4 WAT by using a 0-10 visual scale, where 0=no visible damage and 10=total plant death. Marketable fruit weight was collected 2 times in bell pepper and 4 times in tomato following USDA standards.
(§6) Data were analyzed using a general linear model, and means were separated using orthogonal contrasts at the 5% significance level.

Florida-47 tomato = test system: Florida-47 tomato
Procedure: as §1, §2, §3, §4, §5, §6

Tygress tomato plants [1] = test: Foliar nutrient concentration at 6 WAT, open-field tomato (Examples 7-10); conditions: in vivo
Procedure: The following experiments were performed in open-field plots during the spring of 2008 at GCREC, Balm, University of Florida. Four products delivering Zn (BIOX-Z), Mn (BIOX-M), Cu (BIOX-Cu), and Fe (BIOX-Fe) were compared to other micronutrient supplement formulations in tomato and bell pepper plants.
The plot sizes for the tomato plants were 30-ft plots (15 plants per plot) and 15-ft plots were used for the bell pepper plants (30 plants per plot). Crop set-up, procedures and variables were as follows.
Transplants of ‘Tygress’ tomato plants and ‘Patriot’ bell pepper plants in the 4-true leaf stage (about 6 inches tall) were planted in raised beds in open-field plots. The cross-section of each raised bed was 28 inches wide at the top, 32 inches wide at the base, and 8 inches tall. Irrigation and non-micronutrient fertilizer were provided daily through two drip lines per bed (0.45 gal/100 ft bed/min) at recommended rates for tomato and bell pepper production in Florida. […] The height of the plants for each of the treatment groups was measured at 3 weeks after transplantation (WAT), just prior to treatment with the experimental foliar fertilizers.
All foliar fertilizers except BIOX-CM were applied to the various treatment groups at 3 weeks after transplantation (WAT) and again at 5 WAT. The BIOX-CM treatment was applied at 4 and 5 WAT. The working water volume was 60 gal/acre and a non-ionic surfactant (Ad-Spray 80) was added in the amount of 2 pints/100 gal water. All plots were sprayed with sprayers pressurized at 25 psi and the canopies of both crops were covered with the micronutrient solutions. Treated plots were isolated during foliar fertilizer application to avoid the cross-contamination of other treatments on adjoining plots.
Leaf samples were collected from the most recent mature leaves from each plant at 6 WAT (2 weeks after initial treatment). Foliar tissue analysis was performed by a commercial laboratory to determine the concentration of N, P, K, Mg, Ca, B, Zn, Mn, Fe, and Cu. Tomato marketable fruit weights were collected at 10 and 12 WAT, and the fruits were graded according to USDA standards. Pepper marketable fruit weights were determined beginning at 5 WAT over 5 weekly harvests. Fruit mineral analysis (N, P, K, Mg, Ca, B, Zn, Mn, Fe, and Cu) was performed on samples from the tomato harvest.
The experimental design was a randomized complete block design with 5 replications for each treatment. All comparison data were analyzed using a general linear model and the means of each treatment were separated with a Fisher's protected LSD test at the 5% significance level.

Tygress tomato plants [2] = test: Yields of tomato fruits, greenhouse spring 2009 (Examples 13-15)
Procedure: (§7) The following experiments were performed in a green house during the spring of 2009 at GCREC, Balm, University of Florida. Crop set-up, procedures and variables were as follows.
(§8) Transplants of ‘Tygress’ tomato plants were planted in 2-gallon pots filled with commercial planting medium with nutrient concentration of Fe, Zn, Mn, Cu being negligible and insufficient for crop growth. Irrigation and non-micronutrient fertilizer were provided daily through microsprinklers at recommended rates for tomato production in Florida. No pesticides were used. Treatments were as described in Tables 42, 43, and 44 below. BIOX-Cu was compared to Cu-sulfate, BIOX-EDC, and BIOX-O; and BIOX-Fe was compared to Fe-sulfate and BIOX-EDF. BIOX-MEZ is Ca-HMTBA.
(§9) Treatments were applied at 6 WAT (weeks after transplanting) using a water volume of 200 mL/plant. Deionized water was used for foliar applications. A non-ionic surfactant was added. Other nutrients were applied as appropriate under non-limiting conditions.
Marketable fruit were collected three times during the growing season, starting at 10 WAT (4 weeks after the initial treatment). Tomato fruit was graded as marketable and non-marketable. Marketable fruit was sized as extra-large, large, and medium. Non-marketable fruit were harvested and number and weight recorded but not sized.
(§10) Experimental design was a randomized complete block design with 6 replications. Data were analyzed using a general linear model, and means were separated using an LSD test at the 5% significance level.

Tygress tomato plants [3] = conditions: for Toxicity (0-10): 0=no injury, 10=plant death
Procedure: as §7, §8, §9
Toxicity of the treatments was assessed by rating foliar tissue using a visual scale, where 0=no injury and 10=plant death.
as §10

Tygress tomato plants [4] = test: Foliar nutrient concentration at 7 WAT, greenhouse tomato spring 2009 (Examples 13-15)
Procedure: as §7, §8, §9
Foliar tissue nutrient analysis was performed at 3 WAT (i.e., 3 weeks before treatment) and 7 WAT (i.e., 1 weeks after treatment) on the non-applied newest leaves. The concentrations of N, P, K, Mg, Ca, B, Zn, Mn, Fe, and Cu in the foliar tissue were determined by a commercial laboratory. There were no significant differences between the foliar nutrient concentrations of any of the treatment groups prior to treatment.
as §10

[5] = BIOX-Cu at 0.46 and 0.55 lb/acre, Cu-sulfate at 0.8 lb/acre, BIOX-EDC at 0.4 lb/acre
[6] = High rate, 1 week after treatment, scale 0 = no visible injury, 10 = plant death
[7] = Low rate, 1 week after treatment, scale 0 = no visible injury, 10 = plant death
[8] = Medium rate, 1 week after treatment, scale 0 = no visible injury, 10 = plant death
[9] = tomato and bell pepper plants stated together, Fall 2007 greenhouse

With `NCC(=O)[O-].NCC(=O)[O-].[Cu+2]` [BIOX-GC, copper glycinate] the Pepper toxicity (Aristotle bell pepper; in vivo) was 7, the “Foliar injury (in words)” value (Florida-47 tomato; in vivo) was “from light leaf speckling to severe necrosis and plant decay” and the Tomato toxicity (Florida-47 tomato; in vivo) was 7. For the same molecule, the Toxicity scale score (Florida-47 tomato; in vivo) was 7 and the “Foliar Zn concentration of tomato plants, statement” value (Tygress tomato plants [1]) was “slightly higher foliar Zn concentration”.

In the case of `O=S(=O)([O-])[O-].[Fe+2]` [BIOX-INI, ferrous sulfate], the “Marketable tomato yields compared to non-treated control, statement” value (Tygress tomato plants [2]; BIOX-Fe at all levels, Fe-sulfate at 2.0 lb/acre, BIOX-EDF at 0.3 lb/acre) is reported as “decreased marketable yields relative to the non-treated control”, the “Toxicity relative to the non-treated control, statement” value (Tygress tomato plants [3]; all levels of BIOX-Fe, Fe-sulfate at 2.0 lb/acre, BIOX-EDF at 0.3 lb/acre) is reported as “increased toxicity” and the Pepper toxicity (Aristotle bell pepper; in vivo) is reported as 7. For the same molecule, the “Foliar injury (in words)” value (Florida-47 tomato; in vivo) was “from light leaf speckling to severe necrosis and plant decay”, the Tomato toxicity (Florida-47 tomato; in vivo) was 7 and the Toxicity scale scores (Florida-47 tomato; in vivo) was 7-9. For the same molecule, the “Foliar Fe concentration in tomato leaves, statement” value (Tygress tomato plants [4]; 7 WAT (1 week after treatment)) was “highest Fe concentrations”.

For `O=S(=O)([O-])[O-].[Cu+2]` [Cu sulfate], the Marketable yield (Tygress tomato plants [2]; Cu 0.8 lb/acre) was 1200 b g/plant, the “Toxicity (0-10)” value (Tygress tomato plants [3]; Cu 0.8 lb/acre) was 6 and the “Foliar Cu concentration” value (Tygress tomato plants [4]; Cu 0.8 lb/acre, tomato leaves 1 week after treatment) was 986 ppm.

With `O=S(=O)([O-])[O-].[Fe+2]` [Fe sulfate] the Marketable yield (Tygress tomato plants [2]; Fe 2.0 lb/acre) was 1100 g/plant, the “Toxicity (0-10)” value (Tygress tomato plants [3]; Fe 2.0 lb/acre) was 5 and the “Foliar Fe concentration” value (Tygress tomato plants [4]; Fe 2.0 lb/acre, tomato leaves 1 week after treatment) was 888 ppm.

With EDTA chelated copper [BIOX-EDC] the “Marketable tomato yields compared to non-treated control, statement” value (Tygress tomato plants [2]; [5]) was “did not alter marketable yields relative to the non-treated control”, the Marketable yield (Tygress tomato plants [2]; Cu 0.4 lb/acre) was 1550 b g/plant and the “Toxicity compared to non-treated control plants, statement” value (Tygress tomato plants [3]; [5]) was “increased levels of toxicity”. The “Toxicity (0-10)” value (Tygress tomato plants [3]; Cu 0.4 lb/acre) was 6, the Pepper toxicity (Aristotle bell pepper; [6]) was 8 and the Pepper toxicity (Aristotle bell pepper; [7]) was 8. For the same molecule, the Pepper toxicity (Aristotle bell pepper; [8]) was 8, the Tomato toxicity (Florida-47 tomato; [6]) was 8 and the Tomato toxicity (Florida-47 tomato; [7]) was 8. For the same molecule, the Tomato toxicity (Florida-47 tomato; [8]) was 8, the Toxicity scale score (Florida-47 tomato; comparable ranges of copper concentrations (0.004% to 0.061% by weight), scale 0-10, both crops) was 8 and the “Foliar injury (in words)” value (Florida-47 tomato; [9]) was “from light leaf speckling to severe necrosis and plant decay”. For the same molecule, the “Copper concentrations in tomato leaves, statement” value (Tygress tomato plants [4]; 7 WAT (1 week after treatment)) was “highest leaf copper concentrations” and the “Foliar Cu concentration” value (Tygress tomato plants [4]; Cu 0.4 lb/acre, tomato leaves 1 week after treatment) was 678 ppm.

Molecule EDTA chelated iron [BIOX-EDI] has a Pepper toxicity (Aristotle bell pepper; [6]) of 9, a Pepper toxicity (Aristotle bell pepper; [7]) of 9 and a Pepper toxicity (Aristotle bell pepper; [8]) of 9. For the same molecule, the Tomato toxicity (Florida-47 tomato; [6]) was 8, the Tomato toxicity (Florida-47 tomato; [7]) was 8 and the Tomato toxicity (Florida-47 tomato; [8]) was 8. The “Foliar injury (in words)” value (Florida-47 tomato; [9]) was “from light leaf speckling to severe necrosis and plant decay”.

With manganese glycinate [BIOX-GM] the Pepper toxicity (Aristotle bell pepper; [6]) was 7, the Pepper toxicity (Aristotle bell pepper; [7]) was 7 and the Pepper toxicity (Aristotle bell pepper; [8]) was 7. It also gave a Tomato toxicity (Florida-47 tomato; [6]) of 7, a Tomato toxicity (Florida-47 tomato; [7]) of 7 and a Tomato toxicity (Florida-47 tomato; [8]) of 7. The Toxicity scale score (Florida-47 tomato; similar manganese concentrations (0.015% to 0.124% by weight), scale 0-10, both crops) was 7 and the “Foliar injury (in words)” value (Florida-47 tomato; [9]) was “from light leaf speckling to severe necrosis and plant decay”.
